In patent publication US20240207141A1, “PEPTIDE HAVING REPARATIVE DENTIN-REGENERATING ACTIVITY AND USE THEREOF” (SEOUL NATIONAL UNIVERSITY R&DB FOUNDATION, priority 2022, published 2024):
No end group written: not given here.

Tests used:
rat pulp exposure model = experiment: Rat tooth pulp exposure model, histologic analysis (H&E) of inflammatory response and hard tissue formation; assay type: in vivo
Method: Seven-week-old male Sprague-Dawley rats were purchased from the OrientBio after approval from the Institutional Animal Care and Use Committee of Seoul National University (No. SNU-180109-2) was obtained. […] Resin cement (Rely X U-200, 3M ESPE, MN, USA) was used as the final restoration in all experimental groups.
Specifically, the rats were anesthetized by the intraperitoneal injection of 31.25 mg/kg tiletamine/zolazepam and 8.75 mg/kg xylazine. After ascertaining the general anesthesia, the oral cavity was opened with a customized wire to expose the lower first molars. After cleaning and sanitizing with both 3% H2O2 and a 10% Betadine-soaked cotton, the center of the occlusal surface was carefully punctured using a #¼ round bur (0.5 mm in diameter) with a high-speed hand piece. MTA (ProRoot MTA, Dentsply Sirona, York, PA, USA) was mixed according to the manufacturer's instruction and the mixture was applied to the exposed pulp. […] The punctured sites were covered with resin cement after the application of MTA or the collagen sponge. In the Resin group, resin cement was directly applied to the punctured site. The sharp cusp tips of the upper molar and lower first molar were grinded using a football shaped diamond bur in order to prevent tooth fractures by mastication.
Rats were histologically analyzed 2 and 4 weeks after pulp exposure surgery. Whole mandibles were fixed f in 4% paraformaldehyde at 4° ° C. for 24 hours. For histological staining, the specimens were decalcified with 12% EDTA for 4 weeks and embedded in paraffin. […] Each sample was evaluated and scored for inflammatory response and hard tissue formation according to the criteria presented in [Table 2] below.

[1] = test system: human dental pulp cells (hDPCs); experiment: Cell viability assay of hDPCs (water-soluble tetrazolium salt); assay type: cell-based; settings: 50, 100 and 200 μg/ml, 24 or 48 hours
Method: Human dental pulp cells (hDPCs) were collected from the patient's third molars after patient consent and approval from the Institutional Review Board (IRB) of Seoul National University Dental Hospital (IRB No. CRI19007) were obtained. The hDPCs were passaged three times in Dulbecco's modified Eagle's medium (DMEM; Gibco BRL, Carlsbad, CA, USA) supplemented with 10% fetal bovine serum (FBS) and 1% penicillin/streptomycin (10,000 U/ml penicillin, 10,000 μg/ml streptomycin; Gibco, Paisley, Scotland). In order to induce odontogenic differentiation, the hDPCs were then cultured using DMEM supplemented with 10% FBS, 1% penicillin/streptomycin, 10 mM β-glycerophosphate, 200 μM ascorbic acid, and 0.1 μM dexamethasone.
The viability of hDPCs in the presence of VnP-16 was investigated using an Cytox Cell Viability Assay Kit (DoGenBio, Seoul, Korea). A 96-well culture plate was treated with 50, 100 and 200 μg/ml VnP-16, and then 1.5×10^4 cells were plated into each well, and incubated for 24 or 48 hours at 37° C. The water-soluble tetrazolium salt reagent ([…] ) was added to each well, and the plate was incubated at 37 °C for 2 hours. Finally, absorbance at 450 nm was measured using a microplate reader (Epoch2, Bio-Tek, VT, USA).

[2] = test system: human dental pulp cells (hDPCs); experiment: hDPCs cell attachment assay on coated plates; assay type: cell-based; settings: immobilized on plates (vitronectin 0.26 μg/cm2, peptides 10.5 μg/cm2), 1 hour
Method: First, for the cell attachment assay, 48-well culture plates were coated with human plasma vitronectin (0.26 μg/cm2) at 4° C. for 24 hours. The SP and VnP-16 (10.5 μg/cm2) were also coated on the plates by drying at room temperature for 24 hours. […] The peptide-coated plates were blocked with 1% heat-inactivated bovine serum albumin (BSA) in phosphate-buffered saline (PBS) at 37° ° C. for 1 hour, and then washed with PBS. The hDPCs (5×10^4 cells/250 μL) were added to each plate and incubated at 37° ° C. for 1 hour, and then unattached cells were removed by rinsing the plates twice with PBS. The attached cells were fixed with 10% formalin for 15 minutes and stained with 0.5% crystal violet for 1 hour. The plates were then gently washed three times with double-distilled water. Afterwards, the contents of each well were solubilized in 2% sodium dodecyl sulfate for 5 minutes, and then absorbance at 570 nm was measured using a microplate reader.

[3] = test system: human dental pulp cells (hDPCs); experiment: hDPCs cell spreading assay on coated plates; assay type: cell-based; settings: immobilized on plates (vitronectin 0.26 μg/cm2, peptides 10.5 μg/cm2), 3 hours
Method: In addition, for the cell spreading assay, hDPCs (3×10^4 cells/250 μL) were incubated at 37° ° C. for 3 hours on each peptide-coated plate in the same manner as above. The attached cells were fixed with 10% formalin and stained with 0.5% crystal violet for 1 hour. Then, the plates were gently washed three times with PBS, and then the degree of cell spreading was assessed by measuring the surface area of the cells using Image Pro Plus software (version 4.5; Media Cybernetics, Silver Spring, MD, USA).

[4] = test system: human dental pulp cells (hDPCs); experiment: Scratch wound migration assay; assay type: cell-based; settings: vitronectin 1.25 μg/ml, VnP-16 50 μg/ml; 0, 24 and 48 hours
Method: In order to evaluate the migration ability and wound healing ability of hDPCs, the scratch assay was used. The hDPCs were plated in a 24-well plate and incubated in complete medium until 80% confluence. Then, the cells were passaged in serum-free medium for 24 hours, and then stimulated by scratching with a 200 μl pipette tip. After PBS washing to remove cell debris, the cultures were treated with vehicle (10% DMSO), vitronectin (1.25 μg/ml), SP (50 μg/ml), or VnP-16 (50 μg/ml). Pictures were taken using a microscope (Nikon, Tokyo, Japan) at 0, 24 and 48 hours after treatment. The data were analyzed using Image Pro Plus software (version 4.5; Media Cybernetics, MD, USA) to compare the percentage of scratch closure from 0 hour to 48 hours time point. The percentage of: scratch closure was calculated by the following equation: Scratch closure %=[A (0)−A(t)/A(0)]×100. Wherein the scratch area at time zero is “A (0)”; and the area after the incubation time (t) is “A(t)”. The scratch wound migration assay was performed in triplicate.

Molecule: FVWRQFYKYEKG [SP, scrambled peptide used as a negative control]
- newly formed mineralized tissues at the pulp-exposed sites (rat pulp exposure model; 2 weeks after pulp exposure surgery): hardly detected
- hard tissue formation (rat pulp exposure model; 4 weeks after pulp exposure surgery): showed hard tissue formation
- quality of the reparative dentin (rat pulp exposure model; 4 weeks after pulp exposure surgery, H&E): non-tubular and large cell-inclusion structure

Molecule: RVYFFKGKQYWE-NH2 [VnP-16]
- cytotoxicity to hDPCs (cell viability) [1]: no cytotoxicity

B1: vitronectin: human plasma vitronectin purchased from Millipore, used as a positive control (protein, UniProt P04004 20-478, looked up)
Vitronectin: DQESCKGRCTEGFNVDKKCQCDELCSYYQSCCTDYTAECKPQVTRGDVFTMPEDEYTVYDDGEEKNNATVHEQVGGPSLTSDLQAQSKGNPEQTPVLKPEEEAPAPEVGASKPEGIDSRPETLHPGRPQPPAEEELCSGKPFDAFTDLKNGSLFAFRGQYCYELDEKAVRPGYPKLIRDVWGIEGPIDAAFTRINCQGKTYLFKGSQYWRFEDGVLDPDYPRNISDGFDGIPDNVDAALALPAHSYSGRERVYFFKGKQYWEYQFQHQPSQEECEGSSLSAVFEHFAMMQRDSWEDIFELLFWGRTSAGTRQPQFISRDWHGVPGQVDAAMAGRIYISGMAPRPSLAKKQRFRHRNRKGYRSQRGHSRGRNQNSRRPSRATWLSLFSSEESNLGANNYDDYRMDWLVPATCEPIQSVFFFSGDKYYRVNLRTRRVDTVDPPYPRSIAQYWLGCPAPGHL
- cell attachment of hDPCs [2]: strongly promoted cell attachment and spreading
- cell spreading of hDPCs [3]: strongly promoted cell attachment and spreading
- wound migration of hDPCs (scratch closure) [4]: strongly promoted the wound migration
